Test results published in patent US8815517B2, “Methods for identifying functionally related genes and drug targets” (Ribonomics, Inc., priority 1999, dated 2014).

How the values were obtained:
Assay type in all cases: cell-based, murine
G11 cells [1] = test: Microarray of total cellular RNA of G11 cells, differentiated/undifferentiated; details: change in amount of RNA, day 1 and day 9
Method: Neuronal differentiation was induced by treating 5×10^5 G11 or P19 cells placed on a 60 mm petri dish with 0.5 μM RA (Sigma-Aldrich, St. Louis, Mo., Catalog # R2625). Muscle differentiation was induced by treating 5×10^5p19 cells placed on a 60 mm petri dish with 5% DMSO (Sigma-Aldrich, St. Louis, Mo., Catalog # D2650). After two days, 25% of the cells that had formed into clumps were removed, placed in new petri dishes, and supplemented with fresh medium and RA or DMSO. Following an additional two days, cell aggregates were washed once with phosphate-buffered saline (PBS) and trypsinized. The cells were then plated into two 100 mm gelatin-coated tissue culture plates. Cells were harvested after an additional four days. […] Cell extracts and immunoprecipitations were performed as described in Example 1. Monoclonal anti-gene 10 (g10) antibodies were obtained from Duke University (Durham, N.C.) as previously described in Examples 1 and 2. Following immunoprecipitation, the associated mRNAs were identified on high density mouse 12K glass slide microarrays (Mouse cDNA microarray kit, Catalog # […], Agilent Technologies, Palo Alto, Calif.). RNA labeling and microarray analysis was performed according to the manufacturer's protocols (Agilent Technologies, Palo Alto, Calif.).

G11 cells [2] = test: Quantitative PCR of CACN, CELSR and MBNL RNA expression in G11 cells over the time course of differentiation; details: time course of one to nine days
Method: The expression of these three genes was analyzed by Quantitative RT-PCR during a time course of one to nine days of treatment with either dimethyl-sulfoxide or retinoic acid. To verify a role in neuronal differentiation, a comprehensive transcriptional analysis by Quantitative PCR was undertaken looking at the patterns of RNA expression for the […], and MBNL genes in the G11 cells (constitutively expressing HuB) and in the parental P19 cells (FIGS. 12A, 12B, and 12C).

G11 cells [3] = test: Induction of differentiation of HuB (Hel-N2) stably transfected P19 (G11) cells; details: 5% DMSO, harvested after about eight days
Method: The cells were then plated into two 100 mm gelatin-coated tissue culture plates. Cells were harvested after an additional four days. […] Neuronal differentiation was induced by treating 5×10^5 G11 or P19 cells placed on a 60 mm petri dish with 0.5 μM RA (Sigma-Aldrich, St. Louis, Mo., Catalog # R2625). Muscle differentiation was induced by treating 5×10^5p19 cells placed on a 60 mm petri dish with 5% DMSO (Sigma-Aldrich, St. Louis, Mo., Catalog # D2650). After two days, 25% of the cells that had formed into clumps were removed, placed in new petri dishes, and supplemented with fresh medium and RA or DMSO. Following an additional two days, cell aggregates were washed once with phosphate-buffered saline (PBS) and trypsinized. The cells were then plated into two 100 mm gelatin-coated tissue culture plates. Cells were harvested after an additional four days. […] Cell extracts and immunoprecipitations were performed as described in Example 1. Monoclonal anti-gene 10 (g10) antibodies were obtained from Duke University (Durham, N.C.) as previously described in Examples 1 and 2.

Row | SMILES | ΔTotal Cellular RNA, CACN (G11 cells [1]) | ΔTotal Cellular RNA, CELSR (G11 cells [1]) [X] | ΔTotal Cellular RNA, MBNL (G11 cells [1]) | expression patterns of the CACN, CELSR and MBNL genes (G11 cells [2]) | muscle differentiation (morphology and markers) (G11 cells [3])
1 | CC1=C(/C=C/C(C)=C/C=C/C(C)=C/C(=O)O)C(C)(C)CCC1 [RA, retinoic acid] | +1.31X | −1.33 | +1.42X |  | 
2 | C[S+](C)[O-] [DMSO, dimethyl-sulfoxide] |  |  |  | failed to induce changes | displayed characteristic muscle cell markers and morphology
